Data from US20220289794A1, “SYNTHETIC ANTIMICROBIAL PEPTIDES” (priority 2019, published 2022).
Values after ≈ are worked out from the molar mass of the structure shown. Non-standard residues stand in square brackets, D forms with d. Residues, ends and D or L forms follow the SMILES beside them. Trp(6-Cl) = N[C@@H](Cc1c[nH]c2cc(Cl)ccc12)C(=O)O; Dip = N[C@H](C(=O)O)C(c1ccccc1)c1ccccc1; 2Nal = N[C@@H](Cc1ccc2ccccc2c1)C(=O)O

Key:
[1] = system: Methicillin-resistant Staphylococcus aureus MRSA (ATCC BAA-1556); settings: ATCC BAA-1556
S. aureus ATCC 29213 = settings: ATCC 29213
[2] = system: Pseudomonas aeruginosa (ATCC 27883); settings: ATCC 27883
[3] = system: Escherichia coli (ATCC 25922); settings: ATCC 25922
human red blood cells = system: human red blood cells; design: unit not given beside the values

Structure (SMILES) | MIC MRSA ATCC BAA-1556 [1] [µg/mL] | MIC S. aureus ATCC 29213 (S. aureus ATCC 29213) [µg/mL] | MIC P. aeruginosa ATCC 27883 [2] [µg/mL] | MIC E. coli ATCC 25922 [3] [µg/mL] | HC50 (human red blood cells)
N=C(N)NCCC[C@H](NC(=O)[C@H](CCCNC(=N)N)NC(=O)[C@H](CCCNC(=N)N)NC(=O)[C@@H](N)CCCNC(=N)N)C(=O)N[C@@H](Cc1c[nH]c2ccccc12)C(=O)N[C@H](C(=O)N[C@H](C(=O)O)C(c1ccccc1)c1ccccc1)C(c1ccccc1)c1ccccc1 [IFX-026-1, NH2-R-R-R-R-Trp-Dip-Dip-OH] (H-RRRRW[Dip][Dip]-OH) | 6.2 (≈ 4.86 µM) | 6.2 (≈ 4.86 µM) | 25 (≈ 19.6 µM) | 12.5 (≈ 9.8 µM) | 430
N=C(N)NCCC[C@H](NC(=O)[C@H](CCCNC(=N)N)NC(=O)[C@@H](N)CCCNC(=N)N)C(=O)N[C@@H](CCCNC(=N)N)C(=O)N[C@H](C(=O)N[C@@H](Cc1c[nH]c2ccccc12)C(=O)N[C@H](C(=O)O)C(c1ccccc1)c1ccccc1)C(c1ccccc1)c1ccccc1 [IFX-027-1, NH2-R-R-R-R-Dip-Trp-Dip-OH] (H-RRRR[Dip]W[Dip]-OH) | 3.1 (≈ 2.43 µM) | 3.1 (≈ 2.43 µM) | 25 (≈ 19.6 µM) | 12.5 (≈ 9.8 µM) | 910
N=C(N)NCCC[C@H](NC(=O)[C@H](CCCNC(=N)N)NC(=O)[C@@H](N)CCCNC(=N)N)C(=O)N[C@@H](CCCNC(=N)N)C(=O)N[C@H](C(=O)N[C@H](C(=O)N[C@@H](Cc1c[nH]c2ccccc12)C(=O)O)C(c1ccccc1)c1ccccc1)C(c1ccccc1)c1ccccc1 [IFX-028-1, NH2-R-R-R-R-Dip-Dip-Trp-OH] (H-RRRR[Dip][Dip]W-OH) | 6.2 (≈ 4.86 µM) | 6.2 (≈ 4.86 µM) | 50 (≈ 39.2 µM) | 25 (≈ 19.6 µM) | 570
N=C(N)NCCC[C@H](NC(=O)[C@H](CCCNC(=N)N)NC(=O)[C@H](CCCNC(=N)N)NC(=O)[C@@H](N)CCCNC(=N)N)C(=O)N[C@@H](Cc1c[nH]c2ccccc12)C(=O)N[C@@H](Cc1ccc2ccccc2c1)C(=O)N[C@@H](Cc1ccc2ccccc2c1)C(=O)O [IFX-029-1, NH2-R-R-R-R-Trp-NaI-NaI-OH] (H-RRRRW[2Nal][2Nal]-OH) | 3.1 (≈ 2.53 µM) | 3.1 (≈ 2.53 µM) | 50 (≈ 40.9 µM) | 12.5 (≈ 10.2 µM) | 400
N=C(N)NCCC[C@H](NC(=O)[C@H](CCCNC(=N)N)NC(=O)[C@H](CCCNC(=N)N)NC(=O)[C@@H](N)CCCNC(=N)N)C(=O)N[C@@H](Cc1ccc2ccccc2c1)C(=O)N[C@@H](Cc1c[nH]c2ccccc12)C(=O)N[C@@H](Cc1ccc2ccccc2c1)C(=O)O [IFX-030-1, NH2-R-R-R-R-NaI-Trp-NaI-OH] (H-RRRR[2Nal]W[2Nal]-OH) | 6.2 (≈ 5.07 µM) | 6.2 (≈ 5.07 µM) | 25 (≈ 20.4 µM) | 12.5 (≈ 10.2 µM) | 430
N=C(N)NCCC[C@H]1NC(=O)[C@@H](CCCNC(=N)N)NC(=O)[C@@H](CCCNC(=N)N)NC(=O)[C@@H](Cc2c[nH]c3ccccc23)NC(=O)[C@@H](Cc2c[nH]c3ccccc23)NC(=O)[C@@H](Cc2c[nH]c3ccccc23)NC(=O)[C@@H](Cc2c[nH]c3ccccc23)NC(=O)[C@@H](CCCNC(=N)N)NC1=O [IFX-032, c[arg-arg-arg-arg-trp-trp-trp-trp]] (cyclo([dR][dR][dR][dR][dW][dW][dW][dW])) | 6.2 (≈ 4.53 µM) | 6.2 (≈ 4.53 µM) | 25 (≈ 18.3 µM) | 25 (≈ 18.3 µM) | 230
N=C(N)NCCC[C@@H]1NC(=O)[C@@H](CCCNC(=N)N)NC(=O)[C@H](CCCNC(=N)N)NC(=O)[C@@H](Cc2c[nH]c3ccccc23)NC(=O)[C@H](Cc2c[nH]c3ccccc23)NC(=O)[C@@H](Cc2c[nH]c3ccccc23)NC(=O)[C@H](Cc2c[nH]c3ccccc23)NC(=O)[C@@H](CCCNC(=N)N)NC1=O [IFX-033, c[Arg-arg-Arg-arg-Trp-trp-Trp-trp]] (cyclo(R[dR]R[dR]W[dW]W[dW])) | 6.2 (≈ 4.53 µM) | 6.2 (≈ 4.53 µM) | 25 (≈ 18.3 µM) | 12.5 (≈ 9.13 µM) | 95
N=C(N)NCCC[C@@H]1NC(=O)[C@@H](CCCNC(=N)N)NC(=O)[C@H](Cc2c[nH]c3ccccc23)NC(=O)[C@@H](Cc2c[nH]c3ccccc23)NC(=O)[C@H](Cc2c[nH]c3ccccc23)NC(=O)[C@@H](Cc2c[nH]c3ccccc23)NC(=O)[C@H](CCCNC(=N)N)NC(=O)[C@@H](CCCNC(=N)N)NC1=O [IFX-034, c[arg-Arg-arg-Arg-trp-Trp-trp-Trp]] (cyclo(R[dR]R[dW]W[dW]W[dR])) | 6.2 (≈ 4.53 µM) | 6.2 (≈ 4.53 µM) | 25 (≈ 18.3 µM) | 12.5 (≈ 9.13 µM) | 320
N=C(N)NCCC[C@@H]1NC(=O)[C@H](CCCNC(=N)N)NC(=O)[C@H](CCCNC(=N)N)NC(=O)[C@@H](Cc2c[nH]c3ccccc23)NC(=O)[C@@H](Cc2c[nH]c3ccccc23)NC(=O)[C@@H](Cc2c[nH]c3ccccc23)NC(=O)[C@@H](Cc2c[nH]c3ccccc23)NC(=O)[C@H](CCCNC(=N)N)NC1=O [IFX-035, c[Arg-Arg-Arg-Arg-trp-trp-trp-trp]] (cyclo(RRRR[dW][dW][dW][dW])) | 6.2 (≈ 4.53 µM) | 6.2 (≈ 4.53 µM) | 25 (≈ 18.3 µM) | 12.5 (≈ 9.13 µM) | 670
N=C(N)NCCC[C@H]1NC(=O)[C@H](Cc2c[nH]c3ccccc23)NC(=O)[C@H](Cc2c[nH]c3ccccc23)NC(=O)[C@H](Cc2c[nH]c3ccccc23)NC(=O)[C@H](Cc2c[nH]c3ccccc23)NC(=O)[C@@H](CCCNC(=N)N)NC(=O)[C@@H](CCCNC(=N)N)NC(=O)[C@@H](CCCNC(=N)N)NC1=O [IFX-036, c[arg-arg-arg-arg-Trp-Trp-Trp-Trp]] (cyclo([dR][dR][dR][dR]WWWW)) | 6.2 (≈ 4.53 µM) | 6.2 (≈ 4.53 µM) | 25 (≈ 18.3 µM) | 12.5 (≈ 9.13 µM) | 600
N=C(N)NCCC[C@H]1NC(=O)[C@@H](CCCNC(=N)N)NC(=O)[C@@H](CCCNC(=N)N)NC(=O)[C@@H](Cc2c[nH]c3ccccc23)NC(=O)[C@@H](Cc2c[nH]c3ccccc23)NC(=O)[C@@H](Cc2c[nH]c3ccccc23)NC(=O)[C@@H](Cc2c[nH]c3ccccc23)NC(=O)[C@@H](CCCNC(=N)N)NC(=O)[C@@H](CCCNC(=N)N)NC1=O [IFX-037, c[arg-arg-arg-arg-arg-trp-trp-trp-trp]] | 6.2 (≈ 4.06 µM) | 3.1 (≈ 2.03 µM) | 25 (≈ 16.4 µM) | 12.5 (≈ 8.19 µM) | 670
N=C(N)NCCC[C@@H]1NC(=O)[C@H](CCCNC(=N)N)NC(=O)[C@H](CCCNC(=N)N)NC(=O)[C@H](Cc2c[nH]c3cc(Cl)ccc23)NC(=O)[C@H](Cc2c[nH]c3cc(Cl)ccc23)NC(=O)[C@H](Cc2c[nH]c3cc(Cl)ccc23)NC(=O)[C@H](Cc2c[nH]c3cc(Cl)ccc23)NC(=O)[C@H](CCCNC(=N)N)NC1=O [IFX-040, c[Arg-Arg-Arg-Arg-6clW-6clW-6clW-6clW]] (cyclo(RRRR[Trp(6-Cl)][Trp(6-Cl)][Trp(6-Cl)][Trp(6-Cl)])) | 3.1 (≈ 2.06 µM) | 3.1 (≈ 2.06 µM) | 100 (≈ 66.3 µM) | 100 (≈ 66.3 µM) | 490
N=C(N)NCCC[C@@H]1NC(=O)CNC(=O)[C@H](Cc2c[nH]c3ccccc23)NC(=O)[C@H](Cc2c[nH]c3ccccc23)NC(=O)[C@H](Cc2c[nH]c3ccccc23)NC(=O)[C@H](Cc2c[nH]c3ccccc23)NC(=O)CNC(=O)[C@H](CCCNC(=N)N)NC(=O)[C@H](CCCNC(=N)N)NC(=O)[C@H](CCCNC(=N)N)NC1=O [IFX-043] (cyclo(GRRRRGWWWW)) | 6.2 (≈ 4.18 µM) | 6.2 (≈ 4.18 µM) | 50 (≈ 33.7 µM) | 25 (≈ 16.8 µM) | 580
C[C@@H]1NC(=O)[C@H](C)NC(=O)[C@H](CCCNC(=N)N)NC(=O)[C@H](CCCNC(=N)N)NC(=O)[C@H](CCCNC(=N)N)NC(=O)[C@H](CCCNC(=N)N)NC(=O)[C@H](C)NC(=O)[C@H](C)NC(=O)[C@H](Cc2c[nH]c3ccccc23)NC(=O)[C@H](Cc2c[nH]c3ccccc23)NC(=O)[C@H](Cc2c[nH]c3ccccc23)NC(=O)[C@H](Cc2c[nH]c3ccccc23)NC1=O [IFX-045] (cyclo(AARRRRAAWWWW)) | 25 (≈ 15.1 µM) | 25 (≈ 15.1 µM) | 50 (≈ 30.2 µM) | 50 (≈ 30.2 µM) | 390
